In patent US6737383B1, “Herbicidal oxadiazolidines” (priority 1999, dated 2004):

Columns and labels:
bedstraw = experiment: Test B pre/postemergence bedstraw; assay type: in vivo, Galium aparine
Summary of the method: (§1)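 Response is a visual 0-to-10 score relative to untreated plants, where 0 means no effect and 10 means complete control, taken twelve to sixteen days after application. Treatments went onto soil at planting and onto foliage of 1- to 4-leaf plants, using a surfactant-containing non-phytotoxic solvent.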

blackgrass = experiment: Test B pre/postemergence blackgrass; assay type: in vivo, Alopecurus myosuroides
Summary of the method: as §1

surinam grass = experiment: Test B pre/postemergence surinam grass; assay type: in vivo, Brachiaria decumbens
Summary of the method: as §1

cocklebur = experiment: Test B pre/postemergence cocklebur; assay type: in vivo, Xanthium strumarium
Summary of the method: as §1

corn = experiment: Test B pre/postemergence corn; assay type: in vivo, Zea mays
Summary of the method: as §1

crabgrass = experiment: Test B pre/postemergence crabgrass; assay type: in vivo, Digitaria sanguinalis
Summary of the method: as §1

giant foxtail = experiment: Test B pre/postemergence giant foxtail; assay type: in vivo, Setaria faberii
Summary of the method: as §1

morningglory = experiment: Test B pre/postemergence morningglory; assay type: in vivo, Ipomoea hederacea
Summary of the method: as §1

pigweed = experiment: Test B pre/postemergence pigweed; assay type: in vivo, Amaranthus retroflexus
Summary of the method: as §1

rape = experiment: Test B pre/postemergence rape; assay type: in vivo, Brassica napus
Summary of the method: as §1

sugar beet = experiment: Test B pre/postemergence sugar beet; assay type: in vivo, Beta vulgaris
Summary of the method: as §1

wheat = experiment: Test B pre/postemergence wheat; assay type: in vivo, Triticum aestivum
Summary of the method: as §1

wild oat = experiment: Test B pre/postemergence wild oat; assay type: in vivo, Avena fatua
Summary of the method: as §1

purple nutsedge = experiment: Test B pre/postemergence purple nutsedge; assay type: in vivo, Cyperus rotundus
Summary of the method: as §1

rice = experiment: Test B flood test rice; assay type: in vivo, Oryza sativa
Summary of the method: (§2)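 Plants were grown to the 2-leaf stage before treatment with test chemical, then held in a greenhouse for twelve to sixteen days. Injury was visually rated against untreated controls on a 0–10 scale, where 0 is no effect and 10 is complete control.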

bamyardgrass = experiment: Test B flood test barnyardgrass; assay type: in vivo, Echinochloa crus-galli
Summary of the method: as §2

[1] = Postemergence, Rate 125 g/ha, scale of 0 to 10 where 0 is no effect and 10 is complete control
[2] = Preemergence, Rate 62 g/ha, scale 0 to 10 (0 no effect, 10 complete control)
[3] = Preemergence, Rate 125 g/ha, 0 is no effect, 10 is complete control
[4] = Preemergence, Rate 250 g/ha, scale 0 to 10, 0 is no effect, 10 is complete control
[5] = Preemergence, Rate 500 g/ha, scale 0 to 10 (0 no effect, 10 complete control)
[6] = Rate 62 g/ha, Postemergence, scale of 0 to 10 where 0 is no effect and 10 is complete control
[7] = Rate 250 g/ha, Postemergence, scale 0 to 10, 0 is no effect, 10 is complete control
[8] = Rate 500 g/ha, Postemergence, scale 0 to 10
[9] = Rate 62 g/ha, headed Pre-emergence (flood test species), scale 0 to 10 (0 no effect, 10 complete control)
[10] = Rate 125 g/ha, Pre-emergence, flood test species, scale 0 to 10 where 0 is no effect and 10 is complete control
[11] = Rate 250 g/ha, headed Pre-emergence (flood test species), scale 0 to 10 (0 no effect, 10 complete control)
[12] = Rate 500 g/ha, headed Pre-emergence (flood test species), scale 0 to 10 (0 no effect, 10 complete control)

CC(C)N(C(=O)n1oc(=O)n(C(C)(C)C)c1=O)c1ccccc1 [Compound 129]
Bedstraw plant response rating (bedstraw; [1]): 0
Bedstraw plant response rating (bedstraw; [2]): 0
Bedstraw plant response rating (0 to 10 scale) (bedstraw; [3]): 0
Bedstraw plant response rating (bedstraw; [4]): 0
Bedstraw plant response rating (bedstraw; [5]): 0
Bedstraw plant response rating (bedstraw; [6]): 0
Plant response rating, Bedstraw (bedstraw; [7]): 3
Bedstraw plant response rating (bedstraw; Rate 500 g/ha, Postemergence, scale 0 to 10, 0 no effect, 10 complete control): 3
Blackgrass plant response rating (blackgrass; [1]): 0
Blackgrass plant response rating (blackgrass; [2]): 0
Blackgrass plant response rating (0 to 10 scale) (blackgrass; [3]): 0
Blackgrass plant response rating (blackgrass; [4]): 2
Blackgrass plant response rating (blackgrass; [5]): 4
Blackgrass plant response rating (blackgrass; [6]): 0
Plant response rating, Blackgrass (blackgrass; [7]): 3
Blackgrass plant response rating (blackgrass; [8]): 3
B. signalgrass plant response rating (surinam grass; [1]): 0
B. signalgrass plant response rating (surinam grass; [2]): 0
B. signalgrass plant response rating (0 to 10 scale) (surinam grass; [3]): 2
B. signalgrass plant response rating (surinam grass; [5]): 7
B. signalgrass plant response rating (surinam grass; [6]): 0
Plant response rating, B. signalgrass (surinam grass; [7]): 4
B. signalgrass plant response rating (surinam grass; Rate 500 g/ha, Postemergence, scale of 0 to 10 where 0 is no effect and 10 is complete control): 6
Cocklebur plant response rating (cocklebur; [1]): 0
Cocklebur plant response rating (cocklebur; [2]): 0
Cocklebur plant response rating (0 to 10 scale) (cocklebur; [3]): 0
Cocklebur plant response rating (cocklebur; [4]): 0
Cocklebur plant response rating (cocklebur; [6]): 0
Plant response rating, Cocklebur (cocklebur; [7]): 0
Cocklebur plant response rating (cocklebur; [8]): 0
Corn plant response rating (corn; [1]): 0
Corn plant response rating (corn; [2]): 0
Corn plant response rating (0 to 10 scale) (corn; [3]): 0
Corn plant response rating (corn; [4]): 2
Corn plant response rating (corn; [5]): 4
Corn plant response rating (corn; [6]): 0
Plant response rating, Corn (corn; [7]): 2
Corn plant response rating (corn; [8]): 4
Crabgrass plant response rating (crabgrass; [1]): 4
Crabgrass plant response rating (crabgrass; [2]): 6
Crabgrass plant response rating (0 to 10 scale) (crabgrass; [3]): 7
Crabgrass plant response rating (crabgrass; [4]): 7
Crabgrass plant response rating (crabgrass; [5]): 9
Crabgrass plant response rating (crabgrass; [6]): 2
Plant response rating, Crabgrass (crabgrass; [7]): 8
Crabgrass plant response rating (crabgrass; [8]): 9
Giant foxtail plant response rating (giant foxtail; [1]): 6
Giant foxtail plant response rating (giant foxtail; [2]): 7
Giant foxtail plant response rating (0 to 10 scale) (giant foxtail; [3]): 7
Giant foxtail plant response rating (giant foxtail; [4]): 8
Giant foxtail plant response rating (giant foxtail; [5]): 9
Giant foxtail plant response rating (giant foxtail; [6]): 4
Plant response rating, Giant foxtail (giant foxtail; [7]): 9
Giant foxtail plant response rating (giant foxtail; [8]): 9
Morningglory plant response rating (morningglory; [1]): 4
Morningglory plant response rating (morningglory; [2]): 0
Morningglory plant response rating (0 to 10 scale) (morningglory; [3]): 0
Morningglory plant response rating (morningglory; [4]): 0
Morningglory plant response rating (morningglory; [5]): 0
Morningglory plant response rating (morningglory; [6]): 4
Plant response rating, Morningglory (morningglory; [7]): 8
Morningglory plant response rating (morningglory; [8]): 8
Redroot pigweed plant response rating (pigweed; [1]): 0
Redroot pigweed plant response rating (pigweed; [2]): 0
Redroot pigweed plant response rating (0 to 10 scale) (pigweed; [3]): 2
Redroot pigweed plant response rating (pigweed; [4]): 2
Redroot pigweed plant response rating (pigweed; [5]): 7
Redroot pigweed plant response rating (pigweed; [6]): 0
Plant response rating, Redroot pigweed (pigweed; [7]): 2
Redroot pigweed plant response rating (pigweed; [8]): 3
Rape plant response rating (rape; [1]): 0
Rape plant response rating (rape; [2]): 0
Rape plant response rating (0 to 10 scale) (rape; [3]): 0
Rape plant response rating (rape; [4]): 0
Rape plant response rating (rape; [5]): 0
Rape plant response rating (rape; [6]): 0
Plant response rating, Rape (rape; [7]): 0
Rape plant response rating (rape; [8]): 0
Sugarbeets plant response rating (sugar beet; [1]): 0
Sugarbeets plant response rating (sugar beet; [2]): 2
Sugarbeets plant response rating (0 to 10 scale) (sugar beet; [3]): 3
Sugarbeets plant response rating (sugar beet; [4]): 3
Sugarbeets plant response rating (sugar beet; [5]): 5
Sugarbeets plant response rating (sugar beet; [6]): 0
Plant response rating, Sugarbeets (sugar beet; [7]): 0
Sugarbeets plant response rating (sugar beet; [8]): 0
Wheat plant response rating (wheat; [1]): 0
Wheat plant response rating (wheat; [2]): 0
Wheat plant response rating (0 to 10 scale) (wheat; [3]): 0
Wheat plant response rating (wheat; [4]): 3
Wheat plant response rating (wheat; [5]): 3
Wheat plant response rating (wheat; [6]): 0
Plant response rating, Wheat (wheat; [7]): 2
Wheat plant response rating (wheat; [8]): 2
Wild oats plant response rating (wild oat; [1]): 0
Wild oats plant response rating (wild oat; [2]): 3
Wild oats plant response rating (0 to 10 scale) (wild oat; [3]): 5
Wild oats plant response rating (wild oat; [4]): 6
Wild oats plant response rating (wild oat; [5]): 6
Wild oats plant response rating (wild oat; [6]): 0
Plant response rating, Wild oats (wild oat; [7]): 2
Wild oats plant response rating (wild oat; [8]): 2
Nutsedge plant response rating (purple nutsedge; [1]): 0
Nutsedge plant response rating (purple nutsedge; [2]): 0
Nutsedge plant response rating (0 to 10 scale) (purple nutsedge; [3]): 0
Nutsedge plant response rating (purple nutsedge; [4]): 0
Nutsedge plant response rating (purple nutsedge; [5]): 0
Nutsedge plant response rating (purple nutsedge; [6]): 0
Plant response rating, Nutsedge (purple nutsedge; [7]): 0
Nutsedge plant response rating (purple nutsedge; [8]): 0
Rice plant response rating (rice; [9]): 0
Rice plant response rating (rice; [10]): 0
Rice plant response rating (rice; [11]): 8
Plant response rating, Rice (rice; [12]): 6
Barnyardgrass plant response rating (bamyardgrass; [9]): 7
Barnyardgrass plant response rating (bamyardgrass; [10]): 3
Barnyardgrass plant response rating (bamyardgrass; [11]): 9
Plant response rating, Barnyardgrass (bamyardgrass; [12]): 9
